Data set [1] has as its target T1, cyclooxygenase-1 (COX-1) (Homo sapiens, UniProt P23219).
T1 construct: human U-937 cells (which specifically express cyclooxygenase-1); endogenous in cells; host or cells: human U-937 cells (whole cells, and microsomes prepared from them)
Briefly: Whole cell cyclooxygenase assay, COX-1 (PGE2 synthesis in response to arachidonic acid, radioimmunoassay), human U-937 cells. It counts as cell-based. Conditions: read-out: Whole Cells COX-1 % inhib.; for inhibition at 0.1 µM: 100 nM; for inhibition at 0.01 µM: 10 nM. Here is the method:
(§1) Compounds were tested as inhibitors of cyclooxygenase activity in whole cell and microsomal cyclooxygenase assays. Both of these assays measured prostaglandin E2 (PGE2) synthesis in response to arachidonic acid, using a radioimmunoassay. Cells used for whole cell assays, and from which microsomes were prepared for microsomal assays, were human osteosarcoma 143 cells (which specifically express cyclooxygenase-2) and human U-937 cells (which specifically express cyclooxygenase-1). In these assays, 100% activity is defined as the difference between prostaglandin E2 synthesis in the absence and presence of arachidonate addition.

The target in data set [2] is T2, cyclooxygenase-2 (COX-2) (Homo sapiens, UniProt P35354).
T2 construct: human osteosarcoma 143 cells (which specifically express cyclooxygenase-2); endogenous in cells; host or cells: human osteosarcoma 143 cells (whole cells, and microsomes prepared from them)
T2 sequence (P35354 18-604): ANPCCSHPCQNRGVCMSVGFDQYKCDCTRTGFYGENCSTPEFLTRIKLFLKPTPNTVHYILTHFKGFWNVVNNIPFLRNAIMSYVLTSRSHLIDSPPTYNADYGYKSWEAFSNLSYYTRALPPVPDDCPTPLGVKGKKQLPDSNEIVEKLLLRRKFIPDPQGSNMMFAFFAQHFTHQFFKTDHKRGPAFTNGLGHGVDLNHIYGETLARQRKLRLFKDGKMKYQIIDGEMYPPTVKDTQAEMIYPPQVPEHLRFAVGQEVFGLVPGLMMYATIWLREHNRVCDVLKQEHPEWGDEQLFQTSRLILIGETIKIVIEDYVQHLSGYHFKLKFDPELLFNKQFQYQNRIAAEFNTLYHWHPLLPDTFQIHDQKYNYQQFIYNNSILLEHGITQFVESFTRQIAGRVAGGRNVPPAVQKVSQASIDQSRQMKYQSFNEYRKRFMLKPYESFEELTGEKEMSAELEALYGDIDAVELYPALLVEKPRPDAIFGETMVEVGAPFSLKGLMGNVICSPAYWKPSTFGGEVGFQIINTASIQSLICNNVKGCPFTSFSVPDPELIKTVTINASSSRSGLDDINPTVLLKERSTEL
Briefly: Whole cell cyclooxygenase assay, COX-2 (PGE2 synthesis in response to arachidonic acid, radioimmunoassay), human osteosarcoma 143 cells. It counts as cell-based. The following applies: read-out: Whole Cells COX-2 % inhib.; for inhibition at 0.01 µM: 10 nM. The protocol: as §1

Data set [3] concerns the target T2, cyclooxygenase-2 (COX-2). Put plainly: Microsomal cyclooxygenase assay, COX-2 (PGE2 synthesis, microsomes of human osteosarcoma 143 cells). Conditions: for inhibition at 0.1 µM: 100 nM; for inhibition at 0.1 µM / inhibition at 0.01 µM / inhibition at 1 µM: read-out: Microsomes COX-2 % inhib.; for inhibition at 1 µM: 1000 nM. The data set is classed as biochemical. The protocol: as §1

Data set [4] addresses T1, cyclooxygenase-1 (COX-1). Briefly: Microsomal cyclooxygenase assay, COX-1 (PGE2 synthesis, microsomes of human U-937 cells). The data set is classed as biochemical. Conditions: for inhibition at 0.1 µM: 100 nM; for inhibition at 0.1 µM / inhibition at 0.01 µM / inhibition at 1 µM: read-out: Microsomes COX-1 % inhib.; for inhibition at 1 µM: 1000 nM. Here is the method: as §1

T1 sequence (P23219 24-599): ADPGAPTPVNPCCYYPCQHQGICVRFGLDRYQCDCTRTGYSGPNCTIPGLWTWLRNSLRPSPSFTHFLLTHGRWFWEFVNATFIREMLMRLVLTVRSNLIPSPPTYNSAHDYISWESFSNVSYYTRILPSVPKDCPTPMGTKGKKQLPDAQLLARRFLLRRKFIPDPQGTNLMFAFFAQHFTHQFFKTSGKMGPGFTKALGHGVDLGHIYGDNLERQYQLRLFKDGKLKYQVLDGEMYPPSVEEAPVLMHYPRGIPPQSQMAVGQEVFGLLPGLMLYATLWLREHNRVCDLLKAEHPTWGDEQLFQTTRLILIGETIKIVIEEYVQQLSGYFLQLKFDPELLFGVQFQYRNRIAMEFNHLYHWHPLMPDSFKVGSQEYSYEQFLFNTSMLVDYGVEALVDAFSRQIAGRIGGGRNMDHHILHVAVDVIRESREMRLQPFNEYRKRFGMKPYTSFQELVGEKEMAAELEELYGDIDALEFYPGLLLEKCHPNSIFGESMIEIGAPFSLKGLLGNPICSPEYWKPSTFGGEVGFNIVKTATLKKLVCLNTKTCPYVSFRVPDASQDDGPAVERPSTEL

In the case of `CC(C)(O)c1cc(-c2ccc(S(N)(=O)=O)cc2)c(-c2ccc(F)cc2)s1` [Example 1], the inhibition at 0.1 µM at cyclooxygenase-1 (COX-1) [1] stood at 12%; on cyclooxygenase-2 (COX-2) [2] (100 nM) it was 96%; at cyclooxygenase-2 (COX-2) [3], 53%; at cyclooxygenase-1 (COX-1) [4], 8%.
With `NS(=O)(=O)c1ccc(-c2ccsc2-c2ccc(F)cc2)cc1` [Example 2, 3-(4-(Aminosulfonyl)phenyl)-2-(4-fluorophenyl)thiophene], the inhibition at 0.01 µM came to 0% on cyclooxygenase-1 (COX-1) [1], 69% at cyclooxygenase-2 (COX-2) [2], 49% on cyclooxygenase-2 (COX-2) [3] (10 nM) and 25% on cyclooxygenase-1 (COX-1) [4] (10 nM).
Turning to `CC(C)c1cc(-c2ccc(S(N)(=O)=O)cc2)c(-c2ccc(F)cc2)s1` [Example 3, 3-(4-(Aminosulfonyl)phenyl)-2-(4-fluorophenyl)-5-(2-propyl)thiophene], the inhibition at 0.01 µM at cyclooxygenase-2 (COX-2) [2] was found to be 42%; at cyclooxygenase-2 (COX-2) [3] (10 nM), 33%; at cyclooxygenase-1 (COX-1) [4] (10 nM), 19%. Also, the inhibition at 0.1 µM was 100% at cyclooxygenase-2 (COX-2) [2] (100 nM), 76% on cyclooxygenase-2 (COX-2) [3] and 12% on cyclooxygenase-1 (COX-1) [4].
As for `NS(=O)(=O)c1ccc(-c2ccsc2C2CCCCC2)cc1` [Example 4, 3-(4-(Aminosulfonyl)phenyl)-2-cyclohexylthiophene], the values for the inhibition at 0.01 µM on cyclooxygenase-2 (COX-2) [3] (10 nM) and at cyclooxygenase-1 (COX-1) [4] (10 nM) were 47% and 2%, respectively.
With `CS(=O)(=O)c1ccc(-c2cc(C(=O)O)sc2-c2ccc(C(=O)O)cc2)cc1` [Example 5, 5-(4-Carboxyphenyl)-4-(4-(methylsulfonyl)phenyl)thiophene-2-carboxylic acid], the inhibition at 0.01 µM on cyclooxygenase-1 (COX-1) [1] turned out to be 0%; at cyclooxygenase-2 (COX-2) [2], 0%; on cyclooxygenase-2 (COX-2) [3] (10 nM), 43%; at cyclooxygenase-1 (COX-1) [4] (10 nM), 31%.
As to `Cc1nc(-c2ccc(F)cc2)c(-c2ccc(S(C)(=O)=O)cc2)s1` [Example 6, 4-(4-Fluorophenyl)-2-methyl-5-(4-(methylsulfonyl)phenyl)thiazole], the inhibition at 0.1 µM on cyclooxygenase-2 (COX-2) [2] (100 nM) turned out to be 78%; at cyclooxygenase-2 (COX-2) [3], 19%; at cyclooxygenase-1 (COX-1) [4], 16%.
Take `CS(=O)(=O)c1ccc(C2=C(c3ccc(F)cc3)C(=O)CC2)cc1` [Example 7, 2-(4-Fluorophenyl)-3-(4-(methylsulfonyl)phenyl)-2-cyclopenten-1-one]: the inhibition at 0.1 µM at cyclooxygenase-1 (COX-1) [1] amounted to 0%; at cyclooxygenase-2 (COX-2) [2] (100 nM), 74%. Further, the inhibition at 1 µM at cyclooxygenase-2 (COX-2) [3] stood at 58%; at cyclooxygenase-1 (COX-1) [4] it was 16%.
On to `CS(=O)(=O)c1ccc(C2=C(c3ccc(F)cc3)C(=O)OC2)cc1` [Example 9, 3-(4-Fluorophenyl)-4-(4-(methylsulfonyl)phenyl)-2-(5H)-furanone], for which the inhibition at 0.1 µM at cyclooxygenase-2 (COX-2) [2] worked out at 83%; at cyclooxygenase-2 (COX-2) [3], 37%.
With `NS(=O)(=O)c1ccc(C2=C(c3ccc(F)cc3)C(=O)OC2)cc1` [Example 10, 3-(4-Fluorophenyl)-4-(4-(aminosulfonyl)phenyl)-2-(2H)-furanone], the inhibition at 0.1 µM is 95% at cyclooxygenase-2 (COX-2) [2] (100 nM), 71% on cyclooxygenase-2 (COX-2) [3] and 12% at cyclooxygenase-1 (COX-1) [4].
For `CS(=O)(=O)c1ccc(-c2cocc2-c2ccc(F)cc2)cc1` [Example 11, 3-(4-Fluorophenyl)-4-(4-(methylsulfonyl)phenyl)furan], in that order: 39%, 46% and 7%.
Consider `NS(=O)(=O)c1ccc(-c2sccc2-c2ccc(F)cc2)cc1` [Example 13, 2-((4-aminosulfonyl)phenyl)-3-(4-fluorophenyl)thiophene], for which the inhibition at 0.01 µM came to 41% at cyclooxygenase-2 (COX-2) [2], 52% on cyclooxygenase-2 (COX-2) [3] (10 nM) and 7% at cyclooxygenase-1 (COX-1) [4] (10 nM). In addition, the inhibition at 0.1 µM at cyclooxygenase-2 (COX-2) [2] (100 nM) came out at 84%. The “Microsomes COX-2 % inhib.” value at cyclooxygenase-2 (COX-2) [3] (10 nM, 0.01 µM) is recorded as 58%. For the same molecule, the “Microsomes COX-1 % inhib.” value at cyclooxygenase-1 (COX-1) [4] (10 nM, 0.01 µM) is on record as 10%.
As for `O=C(NS(=O)(=O)c1ccc(-c2ccsc2-c2ccc(F)cc2)cc1)C(F)(F)F` [Example 14, 3-(4-(Trifluoroacetylaminosulfonyl)phenyl)-2-(4-fluorophenyl)thiophene], the figures for the inhibition at 0.01 µM at cyclooxygenase-2 (COX-2) [2], at cyclooxygenase-2 (COX-2) [3] (10 nM) and on cyclooxygenase-1 (COX-1) [4] (10 nM) were 73%, 45% and 29%, respectively. Also, the figures for the inhibition at 0.1 µM at cyclooxygenase-2 (COX-2) [2] (100 nM), at cyclooxygenase-2 (COX-2) [3] and at cyclooxygenase-1 (COX-1) [4] were 89%, 63% and 0%, respectively. Besides, the figures for the inhibition at 1 µM on cyclooxygenase-2 (COX-2) [2] (1000 nM), at cyclooxygenase-2 (COX-2) [3] and on cyclooxygenase-1 (COX-1) [4] were 101%, 69% and 0%, respectively.

Values taken from patent publication US5767291A, “Phenyl heterocycles as cox-2 inhibitors” (Merck Frosst Canada, Inc., priority 1996, dated 1998).
